{"source": "paper PMC10488051", "about": "“Screening, Synthesis and Biochemical Characterization of SARS-CoV-2 Protease Inhibitors” (International Journal of Molecular Sciences, 2023)", "key": {"SARS-CoV-2": {"tested_on": "SARS-CoV-2", "conditions": "patients with mild-to-moderate COVID-19; cited from earlier work"}, "SARS-CoV-2 PL^pro": {"target": "SARS-CoV-2 PL^pro (Severe acute respiratory syndrome coronavirus 2, UniProt P0DTD1)", "experiment": "PL^pro enzymatic inhibition assay (FRET-based, Z-RLRGG-AMC substrate)", "assay_type": "biochemical", "conditions": "Table 2 disulfide compounds; enzymatic inhibition assay, 25 °C, pH 7.5; PL^pro dialyzed to avoid DTT"}, "SARS-CoV-2 M^pro": {"target": "SARS-CoV-2 M^pro (Severe acute respiratory syndrome coronavirus 2, UniProt P0DTD1)", "experiment": "biochemical", "assay_type": "biochemical", "conditions": "Table 2 disulfide compounds; enzymatic inhibition assay, 25 °C, pH 7.5"}, "PL^pro": {"target": "PL^pro (Severe acute respiratory syndrome coronavirus 2, UniProt P0DTD1)", "assay_type": "binding"}, "M^pro [1]": {"target": "T1, M^pro (Severe acute respiratory syndrome coronavirus 2, UniProt P0DTD1)", "assay_type": "binding"}, "wt PL^pro": {"target": "wt PL^pro (Severe acute respiratory syndrome coronavirus 2, UniProt P0DTD1)"}, "M^pro [2]": {"target": "T1, M^pro", "conditions": "cited from earlier work"}, "[3]": {"conditions": "no reducing agents, 1 h incubation at room temperature"}}, "note": "“And” between values parts separate entries of the source, which are not always exact repeats. Equal entries are not always repeated. “Also recorded” adds a separate entry of the source.", "data": [{"smiles": "Cn1cnc(Cn2c(=O)[nH]/c(=N\\c3cc4cn(C)nc4cc3Cl)n(Cc3cc(F)c(F)cc3F)c2=O)n1", "note": "[S-217622]", "values": [{"measurement": "Antiviral efficacy in patients", "setting": "SARS-CoV-2", "value": "rapid and favorable antiviral efficacy"}]}, {"smiles": "Nc1ccccc1SSc1ccccc1N", "note": "[Compound 32]", "values": [{"measurement": "Kd", "setting": "SARS-CoV-2 PL^pro", "value": 0.54, "unit": "µM"}, {"measurement": "Kd", "setting": "SARS-CoV-2 M^pro", "value": 2.8, "unit": "µM"}, {"measurement": "Covalent binding to PL^pro by mass spectrometry", "setting": "PL^pro; [3]", "value": "covalent binding of 32 with PL^pro and M^pro was confirmed"}, {"measurement": "Mass shift of PL^pro-compound adduct (major peak)", "setting": "PL^pro; protein/ligand molar ratio 1:5 for 32", "value": 123.13, "unit": "Da"}, {"measurement": "Covalent binding to M^pro by mass spectrometry", "setting": "M^pro [1]; [3]", "value": "covalent binding of 32 with PL^pro and M^pro was confirmed"}, {"measurement": "Mass shift of M^pro-compound adduct (major peak)", "setting": "M^pro [1]; protein/ligand molar ratio 1:10", "value": "245.73 Da and 245.7 Da"}, {"measurement": "Thermal effect (Tm) on wild-type PL^pro", "setting": "wt PL^pro", "value": "strongly destabilized the native PL^pro; also recorded: thermal destabilization effect (Tm decrease) induced by 32 is seen only for wild-type PL^pro"}]}, {"smiles": "CCN(CC)C(=S)SSC(=S)N(CC)CC", "note": "[disulfiram]", "values": [{"measurement": "Covalent interaction with cysteine residues of M^pro", "setting": "M^pro [2]", "value": "interact covalently with cysteine residues of M^pro"}]}]}
